Data reported in patent publication US20100104536A1, “P38 INHIBITORS” (priority 2007, published 2010).

Experiments:
[1] = tested on: IL-2; experiment: Cytokine suppression in splenocytes: IL-2; format: cell-based, Balb/C mice; details: 48 hrs
Experimental: (§1) Naïve Balb/C mice were randomized in two groups. Mice from groups 1 and 2 were sacrificed and spleens were isolated. The Splenocytes were isolated and cultured in RPMI […] 1640 media with 10% FBS and 1% antibiotics in microtitre plate. Group 1 was incubated with PBS while group 2 was incubated with 10̂8 Mw cells. After 48 hrs the cell supernatant was separated and the levels of cytokines were checked using commercial kit from R & D systems (Cat # M2000, Cat # M4000B, Cat # M1240).
(§2) Naïve Balb/C mice were sacrificed and spleens were isolated for all five groups. The splenocytes were isolated from each group and cultured in RPMI 1640 media with […] in microtitre plate. The cells were plated in micro titer plate. The wells were divided into five sets. Set one was the control, set two was stimulated with Mw, set three with 10 mM of Dexamethasone set four with 10 mcM (micro mole) of Dexamethasone and set five with 1 mcM of dexammethasone. After 48 hrs of culture the cells were harvested and the cytokine assays were performed using commercial kits from R&D systems. (Cat #M5000, Cat #M4000B, Cat #M2000, Cat #M1240)

[2] = tested on: IL-5; experiment: Cytokine suppression in splenocytes: IL-5; format: cell-based, Balb/C mice; details: 48 hrs
Experimental: as §1, §2

[3] = after administration of 200 mg of Dexamethasone intravenously; cited from earlier work
[4] = tested on: IL-12p40; experiment: Cytokine suppression in splenocytes: IL-12p40; format: cell-based, Balb/C mice; details: 48 hrs
Experimental: as §1, §2

[5] = tested on: IL-4; experiment: Cytokine suppression in splenocytes: IL-4; format: cell-based, Balb/C mice; details: 48 hrs
Experimental: as §1, §2

C[C@@H]1C[C@H]2[C@@H]3CCC4=CC(=O)C=C[C@]4(C)[C@@]3(F)[C@@H](O)C[C@]2(C)[C@@]1(O)C(=O)CO [Dexamethasone]
In vitro % inhibition of IL-2 ([1]; Dexamethasone 1 mcM): 25.6%
In vitro % inhibition of IL-2 ([1]; Dexamethasone 10 mcM): 33.7%
inhibition at 10000 µM ([1]; Mus musculus, Splenocyte, Dexamethasone 10 mM, read-out: In vitro % inhibition of IL-2): 70.6%
In vitro % inhibition of IL-5 ([2]; Dexamethasone 1 mcM): 43.9%
In vitro % inhibition of IL-5 ([2]; Dexamethasone 10 mcM): 70.3%
inhibition at 10000 µM ([2]; Mus musculus, Splenocyte, Dexamethasone 10 mM, read-out: In vitro % inhibition of IL-5): 85.8%
Cmax [3]: 10000 µM
In vitro % inhibition of IL-12p40 ([4]; Dexamethasone 1 mcM): 33.7%
In vitro % inhibition of IL-12p40 ([4]; Dexamethasone 10 mcM): 47.1%
inhibition at 10000 µM ([4]; Mus musculus, Splenocyte, Dexamethasone 10 mM, read-out: In vitro % inhibition of IL-12p40): 57.7%
In vitro % inhibition of IL-4 ([5]; Dexamethasone 1 mcM): 61.9%
In vitro % inhibition of IL-4 ([5]; Dexamethasone 10 mcM): 84.5%
inhibition at 10000 µM ([5]; Mus musculus, Splenocyte, Dexamethasone 10 mM, read-out: In vitro % inhibition of IL-4): 93.7%
